Read-outs that look alike come from different tables or passages of the source.
Tested on: Z. mobilis strain 8b
[1] = medium supplemented with 6 g/L acetamide, pH 6.0, 30° C., vs unsupplemented control, FIG. 1
[2] = medium supplemented with 7.2 g/L acetic acid, pH 6.0, 30° C., vs unsupplemented control, FIG. 1

Excerpt: Fermentation medium was composed of 10 g/L yeast extract, 2 g/L KH2PO4, 70 g/L glucose, 40 g/L xylose and 0.1 M MES buffer.

| Compound | final density of Z. mobilis [1] | growth rate of Z. mobilis [1] | inhibition of biocatalyst growth (summary statement referring to Example 12) | cell yield (as measured by dry cell mass) [2] | growth rate of Z. mobilis [2] |
| --- | --- | --- | --- | --- | --- |
| CC(N)=O [acetamide] | no influence | no influence | non-inhibitory | – | – |
| CC(=O)O [acetic acid] | – | – | – | lower cell yield | reduced growth rate |
